Assay [1] has as its system Z138 mantle cell lymphoma tumour cell lines. Put plainly: In vitro cytotoxicity, MTT assay. It is filed as cell-based. The conditions noted are these: Z138 cells, exposed to the test compounds for 96 hours. Here is the method:
The cytotoxicity studies were evaluated by MTT [3-(4,5-dimethylthiaxol-2-yl)-2,5-diphenyltetrazolium bromide|assay and carried out on Z138 mantle cell lymphoma tumour cell lines. The cells are distributed onto microplates and exposed to the test compounds for 96 hours. MTT is then added for 4 hours and converted by NAD(P)H-dependent cellular oxidoreductase enzymes in forma/an, which has a purple color. The viable cell number is proportional to the production of formazan salts and cell viability can be quantified by the absorbance of the solution at 540 nm with a spectrophotometer (Carmichael et al., Cancer Res. 1987, 47, 936-942).
Background: Tetrazolium dyes change colour on reduction, which living cells bring about.

Another assay has as its target T1, USP7 (Homo sapiens, UniProt Q93009, C315A).
T1 construct: 0.25 nM His-His-USP7 (aa208-560, |C315A|) was incubated with compound; His-His (N)
The assay is described as follows: Inhibition of USP7 by Fluorescence Intensity (FLINT) readings, Ubiquitin-Rhodamine-110 substrate. It counts as biochemical. The conditions noted are these: 0.25 nM His-His-USP7 (aa208-560), 60 minutes at 30° C. preincubation; Ki determined from IC50 according to Cer et al. Summed up: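 Kinetic rate of Rhodamine-110 release from ubiquitin substrate (50 nM or 4 μM), read every 3 min for 21 min, after 60 min, 30 °C preincubation of 0.25 nM USP7 catalytic domain C315A with compound. Bicine pH 8.0 buffer, 10% DMSO; 11-point IC50 vs DMSO and no-enzyme controls, converted to Ki.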

T1 sequence (Q93009 208-560 C315A): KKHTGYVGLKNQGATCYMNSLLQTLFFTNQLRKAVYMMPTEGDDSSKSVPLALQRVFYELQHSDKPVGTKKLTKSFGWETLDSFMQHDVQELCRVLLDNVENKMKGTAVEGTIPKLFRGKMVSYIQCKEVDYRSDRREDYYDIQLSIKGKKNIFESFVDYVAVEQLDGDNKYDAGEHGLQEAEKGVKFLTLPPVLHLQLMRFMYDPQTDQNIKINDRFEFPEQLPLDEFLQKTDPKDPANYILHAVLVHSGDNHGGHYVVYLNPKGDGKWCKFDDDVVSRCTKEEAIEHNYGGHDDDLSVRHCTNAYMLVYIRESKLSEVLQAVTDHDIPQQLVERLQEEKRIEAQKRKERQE

Regarding `Cn1c(C(=O)N2CC[C@@H](C(=O)N3CCC(O)(Cn4cnc(Oc5ccc(F)cc5)c(N)c4=O)CC3)[C@H](c3ccccc3)C2)c(Cl)c2ccccc21` [Example 127, 5-amino-3-[[1-[(3R,4R)-1-(3-chloro-1-methyl-indole-2-carbonyl)-3-phenyl-piperidine-4-carbonyl]-4-hydroxy-4-piperidyl]methyl]-6-(4-fluorophenoxy)pyrimidin-4-one], the IC50 (in general, the concentration that gives 50% inhibition) in assay [1] (Homo sapiens, Z-138) amounted to 20.4 nM. Further, at USP7, the Ki (in general, the dissociation constant of the complex between target and ligand, obtained from inhibition or displacement) stood at 5.93 nM.

Take `Cc1nc(C2CC(F)(F)C2)sc1C(=O)N1CC[C@@H](C(=O)N2CC[C@](O)(Cn3cnc(Oc4ccc(F)cc4)c(N)c3=O)C(F)(F)C2)[C@H](c2ccccc2)C1` [Example 190]: inhibition in assay [1] (Homo sapiens, Z-138) was half-maximal at 6.82 nM (IC50). This compound also displayed a Ki at USP7 of 12.4 nM.

In turn, `COc1cc(Oc2ncn(C[C@@]3(O)CCN(C(=O)[C@@H]4CCN(C(=O)c5sc(-c6ccc(C)nc6)nc5C)C[C@H]4c4ccccc4)CC3(F)F)c(=O)c2N)ccc1Cl` [Example 184, 5-amino-6-(4-chloro-3-methoxy-phenoxy)-3-[[(4S)-3,3-difluoro-4-hydroxy-1-[(3R,4R)-1-[4-methyl-2-(6-methyl-3-pyridyl)thiazole-5-carbonyl]-3-phenyl-piperidine-4-carbonyl]-4-piperidyl]methyl]pyrimidin-4-one] came in with an IC50 in assay [1] (Homo sapiens, Z-138) of 3.96 nM. The Ki on USP7 came out at 7.28 nM.

Consider `COc1cc(Oc2ncn(CC3(O)CCN(C(=O)[C@@H]4CCN(C(=O)c5sc(-c6ccc(C)nc6)nc5C)C[C@H]4c4ccccc4)CC3)c(=O)c2N)ccc1F` [Example 25], for which, in assay [1] (Homo sapiens, Z-138), the IC50 came out at 2.3 nM. At USP7, the Ki was found to be 2.9 nM.

In the case of `Cc1cc(C(=O)N2CC[C@@H](C(=O)N3CCC(O)(Cn4cnc(Oc5ccc(F)cc5)c(N)c4=O)CC3)[C@H](c3ccccc3)C2)cc(C)n1` [Example 97, 5-amino-3-({1-[(3R,4R)-1-(2,6-dimethylpyridine-4-carbonyl)-3-phenylpiperidine-4-carbonyl]-4-hydroxypiperidin-4-yl}methyl)-6-(4-fluorophenoxy)pyrimidin-4(3H)-one], in assay [1] (Homo sapiens, Z-138), the IC50 is 42.7 nM. Besides, the Ki at USP7 is 9.8 nM.

In assay [1] (Homo sapiens, Z-138), `COc1cc(Oc2ncn(C[C@@]3(O)CCN(C(=O)[C@@H]4CCN(Cc5ncccn5)C[C@H]4c4ccccc4)CC3(F)F)c(=O)c2N)ccc1F` [Example 215, 5-amino-3-[[(4S)-3,3-difluoro-4-hydroxy-1-[(3R,4R)-3-phenyl-1-(pyrimidin-2-ylmethyl)piperidine-4-carbonyl]-4-piperidyl]methyl]-6-(4-fluoro-3-methoxy-phenoxy)pyrimidin-4-one] yielded an IC50 of 24.6 nM. The same compound returned a Ki at USP7 of 54.1 nM.

`Cc1nc(-c2ccccc2)sc1C(=O)N1CC[C@@H](C(=O)N2CCC(O)(Cn3cnc(Oc4ccc(F)cc4)c(N)c3=O)CC2)[C@H](c2ccccc2)C1` [Example 66, 5-amino-6-(4-fluorophenoxy)-3-({4-hydroxy-1-[(3R,4R)-1-(4-methyl-2-phenyl-1,3-thiazole-5-carbonyl)-3-phenylpiperidine-4-carbonyl]piperidin-4-yl}methyl)pyrimidin-4(3H)-one] displayed an IC50 in assay [1] (Homo sapiens, Z-138) of 4.5 nM. On USP7, this compound showed a Ki of 6.5 nM.

Take `COc1ccccc1C1(N2CC[C@@H](C(=O)N3CCC(O)(Cn4cnc(Oc5ccc(F)cc5)c(N)c4=O)CC3)[C@H](c3ccccc3)C2)COC1` [Example 139, 5-amino-6-(4-fluorophenoxy)-3-[[4-hydroxy-1-[(3R,4R)-1-[3-(2-methoxyphenyl)oxetan-3-yl]-3-phenyl-piperidine-4-carbonyl]-4-piperidyl]methyl]pyrimidin-4-one]: the IC50 in assay [1] (Homo sapiens, Z-138) was determined as 24.6 nM. In addition, at USP7, the affinity, expressed as Ki, was 19 nM.

`Cc1ccc(-c2cccc(S(=O)(=O)N3CC[C@@H](C(=O)N4CCC(O)(Cn5cnc(Oc6ccc(F)cc6)c(N)c5=O)CC4)[C@H](c4ccccc4)C3)c2)cn1` [Example 159, 5-amino-6-(4-fluorophenoxy)-3-[[4-hydroxy-1-[(3R,4R)-1-[3-(6-methyl-3-pyridyl)phenyl]sulfonyl-3-phenyl-piperidine-4-carbonyl]-4-piperidyl]methyl]pyrimidin-4-one] gave an IC50 in assay [1] (Homo sapiens, Z-138) of 8.18 nM. At USP7, this compound returned a Ki of 22.2 nM.

With `Cc1ncc(C(=O)N2CC[C@@H](C(=O)N3CCC(O)(Cn4cnc(Oc5ccc(F)cc5)c(N)c4=O)CC3)[C@H](c3ccccc3)C2)s1` [Example 49], 31 nM corresponded to half-maximal inhibition in assay [1] (Homo sapiens, Z-138) (IC50). In addition, the affinity on USP7, expressed as Ki, was 24.9 nM.

In assay [1] (Homo sapiens, Z-138), `Cc1nc(Br)sc1C(=O)N1CC[C@@H](C(=O)N2CC[C@](O)(Cn3cnc(Oc4ccc(F)cc4)c(N)c3=O)C(F)(F)C2)[C@H](c2ccccc2)C1` [Example 41, 5-amino-3-(((4S)-1-[(3R,4R)-1-(2-bromo-4-methyl-1,3-thiazole-5-carbonyl)-3-phenylpiperidine-4-carbonyl]-3,3-difluoro-4-hydroxypiperidin-4-yl}methyl)-6-(4-fluorophenoxy)pyrimidin-4(3H)-one] returned an IC50 of 2.5 nM. The compound further returned a Ki on USP7 of 6.7 nM.

Consider `Cc1nccc(CN2CC[C@@H](C(=O)N3CC[C@](O)(Cn4cnc(Oc5ccc(Cl)cc5)c(N)c4=O)C(F)(F)C3)[C@H](c3ccccc3)C2)n1` [Example 168], for which the concentration for half-maximal inhibition (IC50) in assay [1] (Homo sapiens, Z-138) came out at 13.8 nM. The same compound displayed a Ki at USP7 of 38.5 nM.

`Nc1c(Oc2ccc(F)cc2)ncn(CC2(O)CCN(C(=O)[C@@H]3CCN(C(=O)c4ccccc4)C[C@H]3c3ccccc3)CC2)c1=O` [Example 36] returned an IC50 in assay [1] (Homo sapiens, Z-138) of 8.93 nM. For the same compound, the affinity on USP7, expressed as Ki, was 15.1 nM.

For “5-amino-3-[(3SR,4SR)-3-fluoro-4-hydroxy-1-(3R,4R)-1-[4-methyl-2-(6-methyl-3-pyridyl)thiazole-5-carbonyl]-3-phenyl-piperidine-4-carbonyl]-4-piperidyl]methyl]-6-(4-fluorophenoxy)pyrimidin-4-one and 5-amino-3-[[(3RS,4RS)-3-fluoro-4-hydroxy-1-[(3R,4R)-1-[4-methyl-2-(6-methyl-3-pyridyl)thiazole-5-carbonyl]-3-phenyl-piperidine-4-carbonyl]-4-piperidyl]methyl]-6-(4-fluorophenoxy)pyrimidin-4-one [Example 198]”, half-maximal inhibition in assay [1] (IC50) required 3.14 nM. The affinity at USP7 corresponds to a Ki of 10.7 nM.

`Cc1nc(C2CCCC2)sc1C(=O)N1CC[C@@H](C(=O)N2CCC(O)(Cn3cnc(Oc4ccc(F)cc4)c(N)c3=O)CC2)[C@H](c2ccccc2)C1` [Example 161, 5-amino-3-[[1-[(3R,4R)-1-(2-cyclopentyl-4-methyl-thiazole-5-carbonyl)-3-phenyl-piperidine-4-carbonyl]-4-hydroxy-4-piperidyl]methyl]-6-(4-fluorophenoxy)pyrimidin-4-one] had a 50% inhibitory concentration (IC50) in assay [1] (Homo sapiens, Z-138) of 3.63 nM. The Ki at USP7 is 10.1 nM.

As to `Nc1c(Oc2ccc(F)cc2)ncn(CC2(O)CCN(C(=O)[C@@H]3CCN(C(=O)c4sc(I)cc4F)C[C@H]3c3ccccc3)CC2)c1=O` [Example 39, 5-amino-3-({1-[(3R,4R)-1-(3-fluoro-5-iodothiophene-2-carbonyl)-3-phenylpiperidine-4-carbonyl]-4-hydroxypiperidin-4-yl}methyl)-6-(4-fluorophenoxy)pyrimidin-4(3H)-one], the IC50 in assay [1] (Homo sapiens, Z-138) came to 13 nM. The compound also gave an inhibitory constant (Ki) at USP7 of 8.2 nM.

Turning to `Nc1c(Oc2ccc(F)cc2)ncn(CC2(O)CCN(C(=O)[C@@H]3CCN(C(=O)c4cncc(F)c4)C[C@H]3c3ccccc3)CC2)c1=O` [Example 134, 5-amino-6-(4-fluorophenoxy)-3-[[1-[(3R,4R)-1-(5-fluoropyridine-3-carbonyl)-3-phenyl-piperidine-4-carbonyl]-4-hydroxy-4-piperidyl]methyl]pyrimidin-4-one], the IC50 in assay [1] (Homo sapiens, Z-138) came out at 17 nM. The same compound registered a Ki on USP7 of 3.7 nM.

In turn, `Nc1c(Oc2ccc(F)cc2)ncn(CC2(O)CCN(C(=O)[C@@H]3CCN(C(=O)Nc4cccc(Br)c4)C[C@H]3c3ccccc3)CC2)c1=O` [Example 83] showed an IC50 in assay [1] (Homo sapiens, Z-138) of 8.5 nM. This compound also came in with a Ki on USP7 of 42 nM.

In assay [1] (Homo sapiens, Z-138), `Cc1ccc(-c2nc(C)c(C(=O)N3CC[C@@H](C(=O)N4CC[C@](O)(Cn5cnc(Oc6ccc(F)cc6)c(N)c5=O)C(F)(F)C4)[C@H](c4ccccc4)C3)s2)cn1` [Example 45] yielded an IC50 of 1.4 nM. For the same compound, the Ki on USP7 turned out to be 3.6 nM.

Compound `Nc1c(Oc2ccc(F)cc2)ncn(CC2(O)CCN(C(=O)[C@@H]3CCN(C(=O)Nc4ccccc4F)C[C@H]3c3ccccc3)CC2)c1=O` [Example 89] displayed an IC50 in assay [1] (Homo sapiens, Z-138) of 26 nM. The Ki on USP7 came out at 20 nM.

On to `Cn1c(C(=O)N2CC[C@@H](C(=O)N3CCC(O)(Cn4cnc(Oc5ccc(F)cc5)c(N)c4=O)CC3)[C@H](c3ccccc3)C2)cc2ccccc21` [Example 37, 5-amino-6-(4-fluorophenoxy)-3-({4-hydroxy-1-[(3R,4R)-1-(1-methyl-1H-indole-2-carbonyl)-3-phenylpiperidine-4-carbonyl]piperidin-4-yl}methyl)pyrimidin-4(3H)-one], for which the IC50 in assay [1] (Homo sapiens, Z-138) is 6.66 nM. At USP7, this compound registered a Ki of 13.6 nM.

As for `COc1cc(Cl)cc(Oc2ncn(C[C@@]3(O)CCN(C(=O)[C@@H]4CCN(Cc5cnc(C)cn5)C[C@H]4c4ccccc4)CC3(F)F)c(=O)c2N)c1` [Example 178], in assay [1] (Homo sapiens, Z-138), the IC50 is 31.8 nM. Also, the affinity at USP7 corresponds to a Ki of 70.1 nM.

For `Nc1c(Oc2ccc(F)cc2)ncn(C[C@@]2(O)CCN(C(=O)[C@@H]3CCN(Cc4ncccn4)C[C@H]3c3ccccc3)CC2(F)F)c1=O` [Example 204], the IC50 in assay [1] (Homo sapiens, Z-138) is 26.9 nM. Moreover, at USP7, the Ki came out at 36.5 nM.

Source of the values: patent publication US20210355106A1, “NEW AMINO-PYRIMIDONYL-PIPERIDINYL DERIVATIVES, A PROCESS FOR THEIR PREPARATION AND PHARMACEUTICAL COMPOSITIONS CONTAINING THEM” (LES LABORATOIRES SERVIER, priority 2018, published 2021).
